Assay results published in the supplement of paper PMC11061612.

Assays:
Assay in all cases: combination Emax (second highest fraction inhibited in the dose matrix, 72 h); higher = more inhibition; extreme values may be limits of the assay
[1] = test system: BICR22 (Oral Cavity Carcinoma)
In short: (§1)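 Bliss excess equals the observed combination effect minus the expected value EA + EB − EA·EB, where EA and EB are the effects of each agent alone. Combination Emax is the second-highest inhibition within the matrix. Inhibition was scaled from CellTiter-Glo 2.0 luminescence, with 0 set by vehicle wells and 1 by blank wells, after 72 hours of two-drug dosing of cells plated in 1536-well plates.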

[2] = test system: CAPAN-2 (Pancreatic Carcinoma)
In short: as §1

CAS-1 (Glioblastoma) = test system: CAS-1 (Glioblastoma)
In short: as §1

[3] = test system: COLO-320-HSR (Colorectal Carcinoma)
In short: as §1

FU97 (Gastric Carcinoma) = test system: FU97 (Gastric Carcinoma)
In short: as §1

GI-ME-N (Neuroblastoma) = test system: GI-ME-N (Neuroblastoma)
In short: as §1

[4] = test system: KARPAS-422 (B-Cell Non-Hodgkin's Lymphoma)
In short: as §1

[5] = test system: MDST8 (Colorectal Carcinoma)
In short: as §1

[6] = test system: NCI-H1650 (Lung Adenocarcinoma)
In short: as §1

[7] = test system: NCI-H1693 (Lung Adenocarcinoma)
In short: as §1

[8] = test system: NCI-H2066 (Squamous Cell Lung Carcinoma)
In short: as §1

[9] = test system: NCI-H2141 (Small Cell Lung Carcinoma)
In short: as §1

NCI-H2591 (Mesothelioma) = test system: NCI-H2591 (Mesothelioma)
In short: as §1

[10] = test system: ONS-76 (Other Solid Carcinomas)
In short: as §1

[11] = test system: OS-RC-2 (Kidney Carcinoma)
In short: as §1

[12] = test system: SISO (Cervical Carcinoma)
In short: as §1

[13] = test system: SK-MG-1 (Low Grade Glioma)
In short: as §1

[14] = test system: TT2609-C02 (Thyroid Gland Carcinoma)
In short: as §1

U-2-OS (Osteosarcoma) = test system: U-2-OS (Osteosarcoma)
In short: as §1

[15] = test system: VCaP (Prostate Carcinoma)
In short: as §1

Structure (SMILES)	combination Emax [1]	combination Emax [2]	combination Emax (CAS-1 (Glioblastoma))	combination Emax [3]	combination Emax (FU97 (Gastric Carcinoma))	combination Emax (GI-ME-N (Neuroblastoma))	combination Emax [4]	combination Emax [5]	combination Emax [6]	combination Emax [7]	combination Emax [8]	combination Emax [9]	combination Emax (NCI-H2591 (Mesothelioma))	combination Emax [10]	combination Emax [11]	combination Emax [12]	combination Emax [13]	combination Emax [14]	combination Emax (U-2-OS (Osteosarcoma))	combination Emax [15]
CC1(C)CCC(CN2CCN(c3ccc(C(=O)NS(=O)(=O)c4ccc(NCC5CCOCC5)c([N+](=O)[O-])c4)c(Oc4cnc5[nH]ccc5c4)c3)CC2)=C(c2ccc(Cl)cc2)C1 [Venetoclax] + C1CN(CCC1(C(=O)N[C@@H](CCO)C2=CC=C(C=C2)Cl)N)C3=NC=NC4=C3C=CN4 [Capivasertib] (first compound max 1 µM, 7x7, partner max 3 µM)	0.272	0.154	0.407	0.0935	0.533	0.24	0.917	0.317	0.164	0.197	0.424	0.249	0.174	0.761	0.354	0.106	0.437	0.139	0.263	0.398
CC1(C)CCC(CN2CCN(c3ccc(C(=O)NS(=O)(=O)c4ccc(NCC5CCOCC5)c([N+](=O)[O-])c4)c(Oc4cnc5[nH]ccc5c4)c3)CC2)=C(c2ccc(Cl)cc2)C1 [Venetoclax] + C=CCn1c(=O)c2cnc(Nc3ccc(N4CCN(C)CC4)cc3)nc2n1-c1cccc(C(C)(C)O)n1 [AZD1775] (first compound max 1 µM, partner max 1 µM)	0.782	0.453	0.615	0.801	0.626	0.272	0.995	0.378	0.433	0.308	0.203	0.792	0.279	0.781	0.326	0.694	0.625	0.639	0.679	0.668
CC1(C)CCC(CN2CCN(c3ccc(C(=O)NS(=O)(=O)c4ccc(NCC5CCOCC5)c([N+](=O)[O-])c4)c(Oc4cnc5[nH]ccc5c4)c3)CC2)=C(c2ccc(Cl)cc2)C1 [Venetoclax] + CCN(CCO)CCCOc1ccc2c(Nc3cc(CC(=O)Nc4cccc(F)c4)[nH]n3)ncnc2c1 [AZD2811] (first compound max 1 µM, 7x7, partner max 1 µM)	0.492	0.204	0.271	0.156	0.413	0.186	0.922	0.306	0.207	0.182	0.226	0.482	0.196	0.698	0.232	0.231	0.464	0.418	0.257	0.226
CC1(C)CCC(CN2CCN(c3ccc(C(=O)NS(=O)(=O)c4ccc(NCC5CCOCC5)c([N+](=O)[O-])c4)c(Oc4cnc5[nH]ccc5c4)c3)CC2)=C(c2ccc(Cl)cc2)C1 [Venetoclax] + CN(C)CCCOc1ccc(-c2ccc3ncc4c(c3c2)n(C2CCOCC2)c(=O)n4C)cn1 [AZD0156] (first compound max 1 µM, 7x7, partner max 1 µM)	0.337	0.199	0.239	0.198	0.462	0.226	0.873	0.199	0.104	0.221	0.156	0.148	0.161	0.725	0.249	0.148	0.275	0.154	0.188	0.196
CC1(C)CCC(CN2CCN(c3ccc(C(=O)NS(=O)(=O)c4ccc(NCC5CCOCC5)c([N+](=O)[O-])c4)c(Oc4cnc5[nH]ccc5c4)c3)CC2)=C(c2ccc(Cl)cc2)C1 [Venetoclax] + COc1cc(Nc2ncc3c(n2)-c2ccc(Cl)cc2C(c2c(F)cccc2OC)=NC3)ccc1C(=O)O [Alisertib] (first compound max 1 µM, 7x7, partner max 10 µM)	0.501	0.244	0.744	0.296	0.484	0.327	0.858	0.329	0.493	0.344	0.285	0.518	0.298	0.553	0.319	0.543	0.365	0.426	0.4	0.305
CC1(C)CCC(CN2CCN(c3ccc(C(=O)NS(=O)(=O)c4ccc(NCC5CCOCC5)c([N+](=O)[O-])c4)c(Oc4cnc5[nH]ccc5c4)c3)CC2)=C(c2ccc(Cl)cc2)C1 [Venetoclax] + C[C@@H]1COCCN1C2=NC(=NC(=C2)C3(CC3)[S@](=N)(=O)C)C4=C5C=CNC5=NC=C4 [AZD6738] (first compound max 1 µM, 7x7, partner max 10 µM)	0.768	0.319	0.623	0.561	0.339	0.459	0.956	0.777	0.402	0.372	0.384	0.637	0.329	0.865	0.399	0.532	0.535	0.317	0.586	0.428
